The record followed here is ChEMBL document CHEMBL5442219.

In general, inhibition refers to the change of the read-out against control, counted positive when it falls.

Common to all, as to conditions: Compound concentration 10 µM
Assay [1] deals with Sigma intracellular receptor 2 (Homo sapiens) (UniProt Q5BJF2).
Description: PDSP Primary Binding target: TMEM97 - Compounds are tested at 10 uM concentration, plate are incubated at room temperature in the dark for 90 minutes. Reaction are stopped by vacuum filtration onto 0.3% polyethyleneimine soaked filter mats using Filtermate harvester. Scintilation cocktail is then melted onto microwave-dried filters on a hot plate and the radio activity is counted in Microbia counter.
In assay [2] the target is 5-hydroxytryptamine receptor 7 (Homo sapiens) (UniProt P34969).
Description: PDSP Primary Binding target: HTR7 - Compounds are tested at 10 uM concentration, plate are incubated at room temperature in the dark for 90 minutes. Reaction are stopped by vacuum filtration onto 0.3% polyethyleneimine soaked filter mats using Filtermate harvester. Scintilation cocktail is then melted onto microwave-dried filters on a hot plate and the radio activity is counted in Microbia counter.
In assay [3] the target is Sodium-dependent serotonin transporter (Homo sapiens) (UniProt P31645).
Description: PDSP Primary Binding target: SLC6A4 - Compounds are tested at 10 uM concentration, plate are incubated at room temperature in the dark for 90 minutes. Reaction are stopped by vacuum filtration onto 0.3% polyethyleneimine soaked filter mats using Filtermate harvester. Scintilation cocktail is then melted onto microwave-dried filters on a hot plate and the radio activity is counted in Microbia counter.
Assay [4] deals with T1, 5-hydroxytryptamine receptor 2C (Homo sapiens) (UniProt P28335).
T1 sequence (whole entry): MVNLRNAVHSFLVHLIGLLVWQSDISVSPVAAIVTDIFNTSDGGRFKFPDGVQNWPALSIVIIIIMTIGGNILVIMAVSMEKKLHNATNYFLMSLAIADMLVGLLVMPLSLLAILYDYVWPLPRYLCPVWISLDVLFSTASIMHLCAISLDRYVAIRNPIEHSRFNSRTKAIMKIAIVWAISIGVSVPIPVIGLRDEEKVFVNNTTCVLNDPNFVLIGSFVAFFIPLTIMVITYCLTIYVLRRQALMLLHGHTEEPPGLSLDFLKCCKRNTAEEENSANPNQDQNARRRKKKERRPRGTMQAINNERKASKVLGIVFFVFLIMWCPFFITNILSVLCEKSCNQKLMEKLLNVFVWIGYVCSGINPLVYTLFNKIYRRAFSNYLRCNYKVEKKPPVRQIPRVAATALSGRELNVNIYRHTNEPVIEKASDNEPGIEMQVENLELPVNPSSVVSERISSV
Description: PDSP Primary Binding target: HTR2C - Compounds are tested at 10 uM concentration, plate are incubated at room temperature in the dark for 90 minutes. Reaction are stopped by vacuum filtration onto 0.3% polyethyleneimine soaked filter mats using Filtermate harvester. Scintilation cocktail is then melted onto microwave-dried filters on a hot plate and the radio activity is counted in Microbia counter.

For assay [5], the target named is 5-hydroxytryptamine receptor 6 (Homo sapiens) (UniProt P50406).
Description: PDSP Primary Binding target: HTR6 - Compounds are tested at 10 uM concentration, plate are incubated at room temperature in the dark for 90 minutes. Reaction are stopped by vacuum filtration onto 0.3% polyethyleneimine soaked filter mats using Filtermate harvester. Scintilation cocktail is then melted onto microwave-dried filters on a hot plate and the radio activity is counted in Microbia counter.
The target in assay [6] is Beta-3 adrenergic receptor (Homo sapiens) (UniProt P13945).
Description: PDSP Primary Binding target: ADRB3 - Compounds are tested at 10 uM concentration, plate are incubated at room temperature in the dark for 90 minutes. Reaction are stopped by vacuum filtration onto 0.3% polyethyleneimine soaked filter mats using Filtermate harvester. Scintilation cocktail is then melted onto microwave-dried filters on a hot plate and the radio activity is counted in Microbia counter.
In assay [7] the target is 5-hydroxytryptamine receptor 1E (Homo sapiens) (UniProt P28566).
Description: PDSP Primary Binding target: HTR1E - Compounds are tested at 10 uM concentration, plate are incubated at room temperature in the dark for 90 minutes. Reaction are stopped by vacuum filtration onto 0.3% polyethyleneimine soaked filter mats using Filtermate harvester. Scintilation cocktail is then melted onto microwave-dried filters on a hot plate and the radio activity is counted in Microbia counter.
Assay [8] addresses T2, Alpha-1A adrenergic receptor (Homo sapiens) (UniProt P35348).
T2 sequence (whole entry): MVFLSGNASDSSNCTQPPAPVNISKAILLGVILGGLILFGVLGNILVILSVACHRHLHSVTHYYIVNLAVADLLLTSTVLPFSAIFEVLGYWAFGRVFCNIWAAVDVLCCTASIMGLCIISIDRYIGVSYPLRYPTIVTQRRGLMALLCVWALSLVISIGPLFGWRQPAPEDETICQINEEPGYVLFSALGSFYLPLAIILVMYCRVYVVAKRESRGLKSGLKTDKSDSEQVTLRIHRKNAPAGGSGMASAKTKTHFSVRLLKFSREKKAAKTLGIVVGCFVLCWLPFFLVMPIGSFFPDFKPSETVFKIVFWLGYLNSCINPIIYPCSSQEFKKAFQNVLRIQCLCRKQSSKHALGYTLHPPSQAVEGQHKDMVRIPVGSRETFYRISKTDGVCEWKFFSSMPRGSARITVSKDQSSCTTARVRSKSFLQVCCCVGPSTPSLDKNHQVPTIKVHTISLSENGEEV
Description: PDSP Primary Binding target: ADRA1A - Compounds are tested at 10 uM concentration, plate are incubated at room temperature in the dark for 90 minutes. Reaction are stopped by vacuum filtration onto 0.3% polyethyleneimine soaked filter mats using Filtermate harvester. Scintilation cocktail is then melted onto microwave-dried filters on a hot plate and the radio activity is counted in Microbia counter.

In assay [9] the target is T3, Muscarinic acetylcholine receptor M5 (Homo sapiens) (UniProt P08912).
T3 sequence (whole entry): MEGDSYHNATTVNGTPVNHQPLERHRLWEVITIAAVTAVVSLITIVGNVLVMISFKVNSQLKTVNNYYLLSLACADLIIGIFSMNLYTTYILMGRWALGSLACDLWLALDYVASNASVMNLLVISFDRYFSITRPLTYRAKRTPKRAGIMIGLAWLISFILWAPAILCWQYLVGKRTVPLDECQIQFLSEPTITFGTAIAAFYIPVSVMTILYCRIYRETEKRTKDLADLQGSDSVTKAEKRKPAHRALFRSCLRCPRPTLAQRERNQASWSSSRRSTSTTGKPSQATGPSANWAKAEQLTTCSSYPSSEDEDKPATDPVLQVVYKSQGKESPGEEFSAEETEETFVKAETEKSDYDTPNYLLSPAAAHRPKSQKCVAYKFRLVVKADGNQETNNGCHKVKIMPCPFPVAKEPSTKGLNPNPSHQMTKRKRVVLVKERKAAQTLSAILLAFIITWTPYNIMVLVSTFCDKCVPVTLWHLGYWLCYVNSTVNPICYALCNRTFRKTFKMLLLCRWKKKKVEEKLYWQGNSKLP
Description: PDSP Primary Binding target: CHRM5 - Compounds are tested at 10 uM concentration, plate are incubated at room temperature in the dark for 90 minutes. Reaction are stopped by vacuum filtration onto 0.3% polyethyleneimine soaked filter mats using Filtermate harvester. Scintilation cocktail is then melted onto microwave-dried filters on a hot plate and the radio activity is counted in Microbia counter.

Assay [10] addresses Sodium-dependent noradrenaline transporter (Homo sapiens) (UniProt P23975).
Description: PDSP Primary Binding target: SLC6A2 - Compounds are tested at 10 uM concentration, plate are incubated at room temperature in the dark for 90 minutes. Reaction are stopped by vacuum filtration onto 0.3% polyethyleneimine soaked filter mats using Filtermate harvester. Scintilation cocktail is then melted onto microwave-dried filters on a hot plate and the radio activity is counted in Microbia counter.
Assay [11] addresses T4, 5-hydroxytryptamine receptor 3A (Homo sapiens) (UniProt P46098).
T4 sequence (whole entry): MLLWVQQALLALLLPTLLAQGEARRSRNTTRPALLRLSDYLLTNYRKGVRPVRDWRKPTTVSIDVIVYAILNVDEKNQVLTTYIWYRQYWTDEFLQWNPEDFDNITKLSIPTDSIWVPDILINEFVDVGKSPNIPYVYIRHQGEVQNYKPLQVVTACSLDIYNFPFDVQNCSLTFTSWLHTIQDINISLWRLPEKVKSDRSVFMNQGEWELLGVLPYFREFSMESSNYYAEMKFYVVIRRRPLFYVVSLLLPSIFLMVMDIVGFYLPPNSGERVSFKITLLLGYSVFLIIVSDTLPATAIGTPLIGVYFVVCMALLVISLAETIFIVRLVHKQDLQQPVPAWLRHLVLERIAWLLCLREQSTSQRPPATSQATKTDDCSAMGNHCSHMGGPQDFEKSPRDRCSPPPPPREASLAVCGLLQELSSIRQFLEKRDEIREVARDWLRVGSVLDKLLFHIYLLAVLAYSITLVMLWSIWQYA
Description: PDSP Primary Binding target: HTR3A - Compounds are tested at 10 uM concentration, plate are incubated at room temperature in the dark for 90 minutes. Reaction are stopped by vacuum filtration onto 0.3% polyethyleneimine soaked filter mats using Filtermate harvester. Scintilation cocktail is then melted onto microwave-dried filters on a hot plate and the radio activity is counted in Microbia counter.

Assay [12] has as its target T5, Alpha-2A adrenergic receptor (Homo sapiens) (UniProt P08913).
T5 sequence (whole entry): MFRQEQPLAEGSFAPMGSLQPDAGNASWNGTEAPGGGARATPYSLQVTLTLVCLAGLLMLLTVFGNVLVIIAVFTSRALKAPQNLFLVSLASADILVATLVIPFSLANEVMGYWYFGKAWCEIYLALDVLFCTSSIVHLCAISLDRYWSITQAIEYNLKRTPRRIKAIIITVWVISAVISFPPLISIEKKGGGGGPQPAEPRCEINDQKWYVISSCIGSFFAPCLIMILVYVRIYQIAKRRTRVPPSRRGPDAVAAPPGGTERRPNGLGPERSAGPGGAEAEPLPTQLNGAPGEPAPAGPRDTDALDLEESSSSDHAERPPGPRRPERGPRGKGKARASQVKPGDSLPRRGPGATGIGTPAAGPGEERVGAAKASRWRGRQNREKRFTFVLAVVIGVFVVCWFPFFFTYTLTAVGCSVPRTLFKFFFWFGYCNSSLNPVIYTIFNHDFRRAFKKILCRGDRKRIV
Description: PDSP Primary Binding target: ADRA2A - Compounds are tested at 10 uM concentration, plate are incubated at room temperature in the dark for 90 minutes. Reaction are stopped by vacuum filtration onto 0.3% polyethyleneimine soaked filter mats using Filtermate harvester. Scintilation cocktail is then melted onto microwave-dried filters on a hot plate and the radio activity is counted in Microbia counter.

Sequence of Beta-3 adrenergic receptor (Homo sapiens) (P13945 whole entry, looked up): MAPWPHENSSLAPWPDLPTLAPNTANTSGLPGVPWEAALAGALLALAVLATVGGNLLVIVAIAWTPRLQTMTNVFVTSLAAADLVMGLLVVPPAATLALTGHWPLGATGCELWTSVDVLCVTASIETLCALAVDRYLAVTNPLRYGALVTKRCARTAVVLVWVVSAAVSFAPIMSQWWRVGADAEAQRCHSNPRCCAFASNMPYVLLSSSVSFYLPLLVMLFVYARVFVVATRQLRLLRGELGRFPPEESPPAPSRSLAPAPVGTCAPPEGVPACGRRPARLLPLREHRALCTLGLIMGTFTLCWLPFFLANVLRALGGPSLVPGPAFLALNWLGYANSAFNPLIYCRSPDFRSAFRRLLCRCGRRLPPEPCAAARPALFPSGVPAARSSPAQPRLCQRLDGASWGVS
Sequence of 5-hydroxytryptamine receptor 1E (Homo sapiens) (P28566 whole entry): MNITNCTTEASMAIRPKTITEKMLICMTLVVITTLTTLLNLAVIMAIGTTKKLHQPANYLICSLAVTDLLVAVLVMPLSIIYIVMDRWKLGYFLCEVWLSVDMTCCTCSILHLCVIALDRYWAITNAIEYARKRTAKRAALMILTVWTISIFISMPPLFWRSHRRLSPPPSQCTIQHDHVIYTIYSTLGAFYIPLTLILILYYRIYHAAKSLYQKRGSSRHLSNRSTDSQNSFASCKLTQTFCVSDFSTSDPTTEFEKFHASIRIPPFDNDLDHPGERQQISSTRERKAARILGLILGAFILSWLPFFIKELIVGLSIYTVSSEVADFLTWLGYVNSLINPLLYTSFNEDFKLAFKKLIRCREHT
Sequence of Sodium-dependent noradrenaline transporter (Homo sapiens) (P23975 whole entry): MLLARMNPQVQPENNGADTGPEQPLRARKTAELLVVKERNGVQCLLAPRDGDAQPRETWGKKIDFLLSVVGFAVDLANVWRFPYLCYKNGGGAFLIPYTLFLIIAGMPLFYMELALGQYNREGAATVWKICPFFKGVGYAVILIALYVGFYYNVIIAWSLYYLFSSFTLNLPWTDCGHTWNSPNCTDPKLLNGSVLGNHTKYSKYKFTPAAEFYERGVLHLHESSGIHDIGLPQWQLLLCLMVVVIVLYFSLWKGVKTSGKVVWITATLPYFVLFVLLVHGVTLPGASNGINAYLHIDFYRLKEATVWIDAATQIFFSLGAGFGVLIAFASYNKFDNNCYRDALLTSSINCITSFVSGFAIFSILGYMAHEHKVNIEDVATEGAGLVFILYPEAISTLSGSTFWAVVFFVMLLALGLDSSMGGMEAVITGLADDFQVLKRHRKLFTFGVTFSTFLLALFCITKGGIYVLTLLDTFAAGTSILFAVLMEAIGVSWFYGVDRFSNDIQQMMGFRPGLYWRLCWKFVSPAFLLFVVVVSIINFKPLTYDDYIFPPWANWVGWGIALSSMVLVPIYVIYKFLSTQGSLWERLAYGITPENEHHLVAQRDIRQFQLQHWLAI
Sequence of 5-hydroxytryptamine receptor 7 (Homo sapiens) (P34969 whole entry): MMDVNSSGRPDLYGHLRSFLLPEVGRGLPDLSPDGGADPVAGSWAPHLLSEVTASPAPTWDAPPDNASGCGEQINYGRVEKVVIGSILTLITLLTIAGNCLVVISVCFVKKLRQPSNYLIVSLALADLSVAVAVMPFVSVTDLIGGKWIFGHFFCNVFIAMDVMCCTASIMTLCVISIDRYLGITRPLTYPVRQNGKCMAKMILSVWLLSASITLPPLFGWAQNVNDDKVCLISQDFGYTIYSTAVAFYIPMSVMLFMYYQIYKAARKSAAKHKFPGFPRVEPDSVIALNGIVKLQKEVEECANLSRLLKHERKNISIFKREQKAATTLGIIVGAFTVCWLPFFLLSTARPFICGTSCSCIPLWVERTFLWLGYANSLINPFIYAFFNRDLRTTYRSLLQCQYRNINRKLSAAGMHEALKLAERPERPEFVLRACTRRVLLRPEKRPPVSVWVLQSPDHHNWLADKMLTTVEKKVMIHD
Sequence of Sigma intracellular receptor 2 (Homo sapiens) (Q5BJF2 whole entry): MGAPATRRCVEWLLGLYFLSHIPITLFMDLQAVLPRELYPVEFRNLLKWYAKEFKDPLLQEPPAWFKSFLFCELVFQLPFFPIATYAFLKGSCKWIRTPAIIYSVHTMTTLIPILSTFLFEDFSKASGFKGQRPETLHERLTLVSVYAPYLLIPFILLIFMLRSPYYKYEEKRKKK
Sequence of Sodium-dependent serotonin transporter (Homo sapiens) (P31645 whole entry, looked up): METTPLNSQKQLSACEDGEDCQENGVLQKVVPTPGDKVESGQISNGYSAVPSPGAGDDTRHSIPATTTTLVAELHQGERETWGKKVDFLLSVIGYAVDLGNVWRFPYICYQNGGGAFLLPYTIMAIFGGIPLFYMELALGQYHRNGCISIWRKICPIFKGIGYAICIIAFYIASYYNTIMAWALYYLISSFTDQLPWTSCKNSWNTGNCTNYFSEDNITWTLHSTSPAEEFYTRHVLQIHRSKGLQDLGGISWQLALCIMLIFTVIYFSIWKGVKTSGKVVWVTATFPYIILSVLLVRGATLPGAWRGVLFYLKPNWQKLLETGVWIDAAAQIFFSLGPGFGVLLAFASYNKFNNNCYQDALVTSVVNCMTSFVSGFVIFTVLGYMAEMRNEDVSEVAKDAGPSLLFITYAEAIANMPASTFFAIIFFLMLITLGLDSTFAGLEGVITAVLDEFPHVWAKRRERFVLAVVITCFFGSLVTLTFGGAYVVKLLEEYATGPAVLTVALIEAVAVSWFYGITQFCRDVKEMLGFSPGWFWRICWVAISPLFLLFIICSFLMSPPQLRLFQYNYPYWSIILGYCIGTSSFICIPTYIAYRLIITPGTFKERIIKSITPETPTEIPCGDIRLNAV
Sequence of 5-hydroxytryptamine receptor 6 (Homo sapiens) (P50406 whole entry): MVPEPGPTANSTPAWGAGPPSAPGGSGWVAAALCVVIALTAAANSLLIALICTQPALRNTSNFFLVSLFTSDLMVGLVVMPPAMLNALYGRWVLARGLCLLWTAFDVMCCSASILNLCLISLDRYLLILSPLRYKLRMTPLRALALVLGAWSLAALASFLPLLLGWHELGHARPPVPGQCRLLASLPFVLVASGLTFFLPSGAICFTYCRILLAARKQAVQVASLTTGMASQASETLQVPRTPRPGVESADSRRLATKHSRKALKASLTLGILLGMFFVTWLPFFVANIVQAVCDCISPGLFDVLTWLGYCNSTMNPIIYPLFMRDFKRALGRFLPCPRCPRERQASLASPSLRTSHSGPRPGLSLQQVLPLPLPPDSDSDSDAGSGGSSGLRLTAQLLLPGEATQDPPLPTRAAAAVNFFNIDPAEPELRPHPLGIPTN

As to `CCCCCCCCCCCCCCCCOC[C@H](COP(=O)([O-])OCC[N+](C)(C)C)OC(C)=O`, the inhibition in [1] was 57.9%; in assay [2], -1.59%; in assay [3], 0.76%; in [4], 67.9%; in assay [5], 4.6%; in assay [6], 28.1%. Also, the inhibition was 11.7% in [7] and 34.5% in [8].

In the case of `CN1C2CCC1CC(OC(c1ccc(F)cc1)c1ccc(F)cc1)C2` (stereo unspecified), the inhibition in assay [9] is 94.5%; in assay [1] it was 100%; in [2], 92.4%; in [10] it was 102%; in assay [3], 15.4%; in [4], 92.9%. The inhibition in assay [5] was 96.1%; in [11], 79.5%; in [6], 36%; in [7] it was 14.3%; in assay [8], 98.7%.

As to `C[C@H](CO)Nc1nc(SCc2cccc(Cl)c2F)nc2[nH]c(=O)sc12`, the inhibition in assay [2] was -7.53%; in [3], 1.74%; in assay [4], 15%; in [5], -7.23%; in assay [6] it was -1.24%; in [7], -4.99%. Moreover, the inhibition in [8] was -7.6%.

Turning to `CC[C@@H]1CN2C(=O)N(C)c3nc(-c4ccccc4)[nH]c3C2=N1`, the inhibition in assay [12] is -7.63%; in [1], 4.68%; in assay [2] it was 21.6%; in assay [10], 19.5%; in [3] it was -6.29%; in [4], 14.2%. In addition, the inhibition is 10.3% in assay [5], 19.4% in assay [6], 23.8% in assay [7] and 4.28% in [8].

On to `CCCCCNC(=N)N/N=C/c1c[nH]c2ccc(OC)cc12`, for which the inhibition was 77.7% in assay [12]; 8.93% in [9]; 94.2% in assay [1]; 93.6% in [2]; 57.7% in [3]; 92.8% in [4]. For the same molecule, the inhibition in [5] was 89%; in assay [11], 70.2%; in [6], 89.7%; in assay [7], 20.5%; in [8], 53.9%.

For the molecule `COc1ccc(S(=O)(=O)N2c3ccc(Cl)cc3[C@](O)(c3ccccc3Cl)[C@@H]2C(=O)N2CCC[C@H]2C(N)=O)cc1OC`, the inhibition was 12.7% in assay [12]; 7.17% in assay [9]; 2.92% in assay [10]; 46.5% in [3]; 21.8% in assay [4]; -1.14% in assay [5]. The inhibition in assay [11] was -3.87%; in assay [6], 31.7%; in [8], -4.04%.

For `Cc1cc(C(=O)N2Cc3cnn(C)c3Nc3ccccc32)ccc1CNC(=O)N1CCC[C@H]1C(=S)N1CCCN(C)CC1`, the inhibition in [12] is 13.1%; in assay [9] it was 83.3%; in assay [1], -1.48%; in assay [2], 0.75%; in [3], -2.9%; in assay [4], -8.65%. Also, the inhibition in [11] was 25.9%; in [6] it was -2.29%; in [7], 4.73%; in assay [8], -5.86%.

Regarding `CSc1ccc(C(=O)N[C@@H]2CCCC[C@@H]2NC(=O)CNC(=O)c2cc(C(F)(F)F)ccc2NC(=O)NC(C)C)cc1`, the inhibition in assay [12] was -2.26%; in assay [1], 18.9%; in [2], 2.72%; in assay [3], 13.7%; in assay [4] it was 33.2%; in assay [11] it was -5.92%. For the same molecule, the results for the inhibition in assay [6], in [7] and in assay [8] were 1.5%, -4.02% and 7.53%, respectively.

On to `C[C@@H](NCCc1ccc(O)cc1)[C@@H](O)c1ccc(O)cc1` (relative stereo), for which the inhibition in assay [12] is -0.38%; in [9], -3.49%; in [1], 58.1%; in assay [10] it was 51.8%; in [3], 52.3%; in assay [4] it was -0.38%. The inhibition is 56.6% in assay [6], -0.11% in [7] and 7.01% in assay [8].

Regarding `CC(C)(N)C(=O)N[C@H](COCc1ccccc1)C(=O)N1CCC2(CC1)CN(S(C)(=O)=O)c1ccccc12`, the inhibition in assay [12] is 10.4%; in assay [9] it was 5.22%; in assay [1], 21.1%; in assay [10] it was -2.84%; in assay [3], 23.6%; in assay [4], -2.12%. The inhibition in assay [5] was 5.9%; in assay [11] it was 17.7%; in assay [6] it was 15.2%; in [7], 14.1%; in assay [8], 3.39%.

Consider `COc1ccc(S(=O)(=O)c2cc(OC)ccc2S(=O)(=O)c2ccc([C@H](C)NS(C)(=O)=O)cc2)cc1`, for which the inhibition in assay [12] is -4.09%; in assay [9], -5.9%; in assay [1], 32.1%; in [10], -0.68%; in [3] it was -7.38%; in [4], 18.7%. Moreover, the inhibition in assay [5] was 96.5%; in assay [11], -2.2%; in [6], 1.41%; in assay [7], -6.16%; in assay [8] it was 22.6%.
